These results are taken from patent US9394238B2, “Process for the production of carnitine from β-lactones” (Lonza Ltd., priority 2010, dated 2016).

The subject of one data set is rat. As to the kind of experiment: Acute toxicity LD50 in rat. The class given is in vivo.

Turning to `O=C(O)/C=C/CO` [hydroxycrotonic acid], the “LD50 (rat)” value in the data set with rat is recorded as greater than 2000 mg/kg bw. For the same molecule, the Ames-Test entry in the data set “Ames-Test (mutagenicity)” is “negative”.
